We go through 2 compounds from patent US9382306B2, “Octapeptide compounds derived from somatostatin and the therapeutic use thereof” (IPSEN PHARMA S.A.S., priority 2008, dated 2016).

This series in a line: Static release test in PBS. Format: physicochemical. Conditions: 75 mM starting concentration, PBS pH 7.4, 37° C., % of free compound. The method, then: Release studies can be carried out on the octapeptide compounds according to the invention in the form of gel, solid, or in suspension. Two types of tests can be envisaged: static release tests and/or dynamic tests, both are briefly described hereafter.
The experimental parameters are common to both types of tests. The release medium is a liquid medium which is physico-chemically well-controlled, preferably a PBS (phosphate buffer saline) buffer adjusted to pH 7.4 and maintained at 37° C. The release curve is defined as the concentration of the studied compound in the dissolution medium (expressed in % of free compound) as a function of time (minutes, hours, days). To initiate the tests, a know quantity of sample is placed in the dissolution medium at time 0 (t=0 min/h/d), the sample being optionally conditioned in a device which is suited to its initial physical state (gel, solid, suspension). Measurements of the concentration of the compound in the release medium are carried out by one or more analytical methods which are well known in the state of the art such as UV-visible spectrophotometry or the HPLC (High Performance Liquid Chromatography). The parameters of the analytical methods are adjusted as a function of the physico-chemical characteristics of the compounds. […]

Bridge positions count the residues as written; N and C are the ends. Square brackets hold non-standard residues; d marks the D form. Peptide text beside a SMILES is read from it. ξ: configuration not given here. d2Nal = N[C@H](Cc1ccc2ccccc2c1)C(=O)O; Thr(3ξ) = CC(O)[C@H](N)C(=O)O

As to `CC(C)[C@@H]1NC(=O)[C@H](CCCCN)NC(=O)[C@@H](C)NC(=O)[C@H](Cc2ccc(O)cc2)NC(=O)[C@@H](NC(=O)[C@H](N)Cc2ccc3ccccc3c2)CSSC[C@@H](C(=O)N[C@H](C(N)=O)C(C)O)NC1=O` (stereo partly drawn) [Example 4, H-D-2-Nal^1-cyclo(Cys^2Tyr^3-D-Ala^4-Lys^5-Val^6Cys^7)-Thr^8-NH2.2 CH3COOH] (H-[d2Nal]CY[dA]KVC[Thr(3ξ)]-NH2; disulfide 2-7), the “Static release after 48 h” value worked out at 85%.
With `CC(C)[C@@H]1NC(=O)[C@H](CCCCN)NC(=O)[C@@H](Cc2cccc3ccccc23)NC(=O)[C@H](Cc2ccc(O)cc2)NC(=O)[C@@H](NC(=O)[C@H](N)Cc2ccc3ccccc3c2)CSSC[C@@H](C(=O)N[C@H](C(N)=O)C(C)O)NC1=O` (stereo partly drawn) [Example 6, H-D-2-Nal^1-cyclo(Cys^2Tyr^3-13-(1-naphthyl)-D-Ala^4-Lys^5-Val^6-Cys^7)-Thr^8-NH2.2 CH3COOH], the “Static release after 48 h” value is 25%.
